Measurements reported in ChEMBL document CHEMBL1201862, “PubChem BioAssay data set” (2004).
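These data come from cells grown in 96-well plates and exposed to compound for 48 hours at five concentrations. The concentration for 50% growth inhibition is given as GI50.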 Calls of active or inactive are those of the source. Rule as the data show it: active = GI50 up to about 1.1 µM and inactive = higher.

Tests used:
Experiment in all cases: NCI-60 cell line screen, 48 h
[1] = system: LXFL 529
[2] = system: DLD-1
[3] = system: M19-MEL
[4] = system: MDA-MB-435
[5] = system: DU-145
[6] = system: MDA-MB-231
[7] = system: BT-549

| SMILES | GI50 [1] | GI50 [2] | GI50 [3] | GI50 [4] | GI50 [5] | GI50 [6] | GI50 [7] |
| --- | --- | --- | --- | --- | --- | --- | --- |
| N/N=c1\c2ccccc2c2ccc3c4ccccc4/c(=N\N)c3c12 | > 100 µM (inactive) | > 100 µM (inactive) | > 100 µM (inactive) | – | – | – | – |
| COc1cc(/C=C2\C[C@H]3[C@@H]4CCc5cc(O)ccc5[C@H]4CC[C@]3(C)C2=O)cc(OC)c1OC | – | – | – | 16.9 µM (inactive) | 3.69 µM (inactive) | 14.3 µM (inactive) | 18.9 µM (inactive) |
| COc1ccc2c(c1)c(=Cc1ccc(N(C)C)cc1)c1cc(-c3ccccc3)[n+](C)n12 | – | – | – | 0.369 µM (active) | 0.479 µM (active) | 0.274 µM (active) | 0.0182 µM (active) |
| N#Cc1c2c(c(Nc3ccc(F)cc3)n3c1nc1ccccc13)CCCC2 | – | – | – | > 24.9 µM (inactive) | > 48.5 µM (inactive) | > 100 µM (inactive) | > 91.6 µM (inactive) |
| O=C(CC(O)c1cccnc1)CC(O)c1cccnc1 (centres undefined) | – | – | – | 16.4 µM (inactive) | 32.2 µM (inactive) | 14.9 µM (inactive) | 11.7 µM (inactive) |
| O=C1NC(=S)NC(=O)C1=Cc1ccc(-c2ccccc2)cc1 | – | – | – | > 100 µM (inactive) | > 100 µM (inactive) | 99.8 µM (inactive) | > 100 µM (inactive) |
| N=C(N)N/N=C/c1c(-c2ccc(Cl)c([N+](=O)[O-])c2)nc2sc(Cl)cn12 | – | – | – | 2.25 µM (inactive) | 1.95 µM (inactive) | 1.97 µM (inactive) | 1.69 µM (inactive) |
| CC[C@@H]1ON(C)[C@H]2CN(C)C(=O)[C@@H]12 | – | – | – | > 100 µM (inactive) | > 100 µM (inactive) | > 100 µM (inactive) | – |
| CN1C2CCC1CC(CCNC(c1ccccc1)c1ccccc1)C2 (centres undefined) | – | – | – | 6.81 µM (inactive) | > 100 µM (inactive) | 22.2 µM (inactive) | 49.3 µM (inactive) |
| C#CC1(O)C(COP(=O)(O)OC(COCCCCCCCCCCCCCCCCCC)COP(=O)(O)OCC2OC(n3cc(C)c(=O)[nH]c3=O)CC2N=[N+]=[N-])OC(n2ccc(N)nc2=O)C1O (centres undefined) | – | – | – | 0.859 µM (active) | 0.946 µM (active) | 2.39 µM (inactive) | 2.68 µM (inactive) |
| CC(C)(C)OC(=O)NCCC(=O)NC1(c2cc3ccccc3s2)CCCCC1 | – | – | – | 17.3 µM (inactive) | 16.7 µM (inactive) | 19.1 µM (inactive) | 16.9 µM (inactive) |
| COC(=O)C1CCC(=O)N1C(c1ccc(OC)cc1)c1ccc2c(c1)OCO2 (centres undefined) | – | – | – | 7.01 µM (inactive) | > 100 µM (inactive) | > 100 µM (inactive) | 89.7 µM (inactive) |
| CC12C(=O)OC(=O)C1(C)C1C=CC2O1 (centres undefined) | – | – | – | > 100 µM (inactive) | > 100 µM (inactive) | 42.6 µM (inactive) | > 100 µM (inactive) |
| C/C(=N/O)c1cccc(Nc2nc3ccccc3c3[nH]c4ccccc4c23)c1 | – | – | – | 2.5 µM (inactive) | 1.74 µM (inactive) | 2.95 µM (inactive) | 12.8 µM (inactive) |
| CC(C)(C)[Si](C)(C)OC1(CCc2ccccc2OS(=O)(=O)C(F)(F)F)CCCC=C1COCc1ccccc1 (centres undefined) | – | – | – | > 100 µM (inactive) | > 100 µM (inactive) | > 100 µM (inactive) | > 100 µM (inactive) |
| CCn1cnnc1-c1nsc2ccccc12 | > 100 µM (inactive) | – | > 100 µM (inactive) | – | – | – | – |
| COc1cc2cc(C(=O)N3C[C@@H](CCl)c4c3cc(N)c3ccccc43)[nH]c2c(OC)c1OC | – | – | – | 0.000269 µM (active) | < 0.01 µM (active) | 0.00172 µM (active) | 0.0442 µM (active) |
| O=C1/C(=C/c2ccc(Cl)cc2)Sc2scc(-c3cccc([N+](=O)[O-])c3)[n+]21 | – | – | – | 3.4 µM (inactive) | 7.11 µM (inactive) | 5.22 µM (inactive) | 2.2 µM (inactive) |
| COc1ccc(NC(C)=O)cc1N1C(=O)/C(=C\c2cc(OC)c(OC)c(OC)c2)S(=O)(=O)C1c1ccccc1 (centres undefined) | – | – | – | 39.7 µM (inactive) | 75 µM (inactive) | 74.3 µM (inactive) | > 100 µM (inactive) |
| COC(=O)C(CCCCNC(=O)CNC(=O)OCc1ccccc1)NC(=O)C(CCCCNC(=O)CNC(=O)OCc1ccccc1)NC(=O)OCc1ccccc1 (centres undefined) | – | – | – | 19.8 µM (inactive) | 98.4 µM (inactive) | > 100 µM (inactive) | 20.7 µM (inactive) |
| CC(C)/C(Cl)=N\OC(=O)Nc1ccc(C#N)cc1 | – | – | – | 8.04 µM (inactive) | 18 µM (inactive) | 14.6 µM (inactive) | 13.7 µM (inactive) |
| Cc1n[nH]c(=O)n1N=C(c1ccccc1)c1ccccc1 | – | – | – | > 100 µM (inactive) | > 100 µM (inactive) | > 100 µM (inactive) | > 100 µM (inactive) |
| Nc1c(-c2ccccc2[N+](=O)[O-])nc2ccccn12 | > 100 µM (inactive) | > 100 µM (inactive) | > 100 µM (inactive) | – | – | – | – |
| O=C1OCc2c1cc1cc3c(cc1c2-c1ccc2c(c1)OCO2)OCO3.O=C1OCc2cc3cc4c(cc3c(-c3ccc5c(c3)OCO5)c21)OCO4 | – | – | – | 1.87 µM (inactive) | 11.3 µM (inactive) | 2.12 µM (inactive) | 19 µM (inactive) |
| COc1ccc2nc3cc([N+](=O)[O-])ccc3c(Nc3ccc(S(=O)(=O)Nc4ncccn4)cc3)c2c1 | – | – | – | > 67.3 µM (inactive) | > 100 µM (inactive) | > 60.1 µM (inactive) | > 44.4 µM (inactive) |

| SMILES | GI50 [1] | GI50 [2] | GI50 [3] | GI50 [4] | GI50 [5] | GI50 [6] | GI50 [7] |
| --- | --- | --- | --- | --- | --- | --- | --- |
| Cc1cc2c(cc1C)[n+]([O-])c(C(=O)N1CCN(c3ccc([N+](=O)[O-])cc3)CC1)c(C)[n+]2[O-] | – | – | – | > 100 µM (inactive) | 29.5 µM (inactive) | 21.8 µM (inactive) | 22.6 µM (inactive) |
| CC(C)n1c(=O)n(-c2ccccc2)n(C(C)(C)C)c1=O | – | – | – | – | – | > 100 µM (inactive) | > 100 µM (inactive) |
| CN(C)CC1CN=C(N)O1 (centres undefined) | – | – | – | > 100 µM (inactive) | > 100 µM (inactive) | > 100 µM (inactive) | – |
| CC(C)CCCC(C)[C@H]1CC[C@H]2[C@@H]3CC[C@H]4C[C@@H](CCC=C(c5cc(Cl)c(O)c(C(=O)O)c5)c5cc(Cl)c(O)c(C(=O)O)c5)CC[C@]4(C)[C@H]3CC[C@]12C (some centres undefined) | – | – | – | > 50 µM (inactive) | > 50 µM (inactive) | > 50 µM (inactive) | > 50 µM (inactive) |
| Cc1ccc(N2C(=O)N(c3ccc(C)cc3)C3(SC=NN3C)C2=O)cc1 (centres undefined) | 64.1 µM (inactive) | 67.6 µM (inactive) | 72.6 µM (inactive) | – | – | – | – |
| CN1C(=O)C2(C)SC1(c1ccccc1)C1C(=O)N(c3ccccc3)C(=O)C12 (centres undefined) | – | – | – | 76 µM (inactive) | > 100 µM (inactive) | > 100 µM (inactive) | > 100 µM (inactive) |
| C=CCOc1ccc(C2c3c(n[nH]c3O)CC(C)(O)C2C(=O)OC)cc1OC (centres undefined) | – | – | – | > 100 µM (inactive) | > 100 µM (inactive) | > 100 µM (inactive) | > 100 µM (inactive) |
| O=c1c2cc([N+](=O)[O-])ccc2nc2n1CCCCC2 | – | – | – | > 100 µM (inactive) | > 100 µM (inactive) | > 100 µM (inactive) | 78 µM (inactive) |
| Cn1c2ccccc2c2c3c(c4c5ccccc5n(C)c4c21)C(=O)c1ccccc1C3=O | – | – | – | 51.3 µM (inactive) | > 100 µM (inactive) | 19.6 µM (inactive) | 20.4 µM (inactive) |
| Oc1cc(O)c2ccc(-c3ccc(O)c(O)c3)[o+]c2c1 | – | – | – | > 100 µM (inactive) | – | – | 39.9 µM (inactive) |
| c1ccc(C2=C(c3ccccc3)Sc3nnc(CCCCCCCCc4nnc5n4NC(c4ccccc4)=C(c4ccccc4)S5)n3N2)cc1 | – | – | – | 34.9 µM (inactive) | > 100 µM (inactive) | 95.9 µM (inactive) | 46.6 µM (inactive) |
| O=C1NC2NC3NC(=O)NC3NC2N1 (centres undefined) | – | – | – | > 100 µM (inactive) | > 100 µM (inactive) | > 100 µM (inactive) | > 100 µM (inactive) |
| CN1CCC2(CC1)SC[C@H]1C(=O)N(c3ccc(Cl)cc3)C(=O)N12 | – | – | – | 43.7 µM (inactive) | > 100 µM (inactive) | > 100 µM (inactive) | > 100 µM (inactive) |
| O=C1CC(C(COCc2ccccc2)OCc2ccccc2)CC(=O)N1 (centres undefined) | – | – | – | > 100 µM (inactive) | > 100 µM (inactive) | > 100 µM (inactive) | 45 µM (inactive) |
| CC(C)(C)[Si](C)(C)O[C@@H](C(=O)OC1C=CCCC1)[C@@H](NC(=O)c1ccccc1)c1ccccc1 (some centres undefined) | – | – | – | 29.3 µM (inactive) | 50.4 µM (inactive) | 19.1 µM (inactive) | 51.1 µM (inactive) |
| Cc1ccc(NC(=O)c2cc3ccccc3c(/N=N/c3cc(S(=O)(=O)O)ccc3O)c2O)c(C)c1 | – | – | – | 19.7 µM (inactive) | 19.2 µM (inactive) | 26.1 µM (inactive) | 17.8 µM (inactive) |
| S=C1C=C(c2ccccc2)Sc2ccccc2N1 | – | – | – | – | > 100 µM (inactive) | > 100 µM (inactive) | > 100 µM (inactive) |
| O=C(COc1ccc(OCC(=O)NNC2=NC(c3cc(F)c(Cl)cc3Cl)CS2)c(Cl)c1)NNC1=NC(c2cc(F)c(Cl)cc2Cl)CS1 (centres undefined) | – | – | – | 16.7 µM (inactive) | 22.8 µM (inactive) | 20 µM (inactive) | 24.1 µM (inactive) |
| CN1C=C(C(N)=O)Cc2ccsc21 | > 100 µM (inactive) | > 100 µM (inactive) | > 100 µM (inactive) | – | – | – | – |
| CN(CCCN=C=S)CCCN1c2ccccc2CCc2ccccc21 | – | – | – | 1.79 µM (inactive) | 1.83 µM (inactive) | 1.8 µM (inactive) | 2.83 µM (inactive) |
| Cc1ccc(/C=N/n2c(Cc3ccccc3)n[nH]c2=O)cc1 | – | – | – | – | > 100 µM (inactive) | > 100 µM (inactive) | 19.8 µM (inactive) |
| C=C1C[C@@H]2CC[C@@]34CC5O[C@H]6C(O[C@H]7CC[C@H](CC(=O)O[C@@H]8[C@@H](C)[C@@H]9O[C@@H]%10C[C@]%11(C[C@@H]%12O[C@]%13(C[C@H](C)[C@@H]%14O[C@@H]%15CC(C(COC(C)=O)OC(C)=O)O[C@@H]%15C[C@@H]%14O%13)C[C@H](C)[C@@H]%12O%11)O[C@@H]%10C[C@@H]9O[C@H]8CC8O[C@@H](CC[C@@H]1O2)C[C@@H](C)C8(O)CO)O[C@@H]7[C@@H]6O3)[C@H]5O4 (some centres undefined) | – | – | – | 0.0826 µM (active) | 0.375 µM (active) | > 0.776 µM (active) | 0.0908 µM (active) |
| Clc1ccc(Cc2nc3cc(Cl)c(Cl)cc3n2CC2CCCN3CCCCC23)cc1Cl (centres undefined) | – | – | – | 3.83 µM (inactive) | 4.79 µM (inactive) | 3.27 µM (inactive) | 8.43 µM (inactive) |
| COc1cc(C2c3cc4c(cc3[C@@H](Nc3ccc(F)cc3)C3COC[C@H]23)OCO4)cc(OC)c1O (some centres undefined) | – | – | – | 6.15 µM (inactive) | – | 2.74 µM (inactive) | – |
| Cc1ccc(/C=C/C(=O)c2cc(CN(C)C)c(O)c(CN(C)C)c2)cc1 | – | – | – | 21.4 µM (inactive) | 30.2 µM (inactive) | 13.8 µM (inactive) | 18.3 µM (inactive) |
